The record followed here is ChEMBL document CHEMBL5113404, “Design, synthesis and biological evaluation of new parbendazole derivatives for the treatment of HNSCC” (Eur J Med Chem, 2022).

Broadly, the IC50 is the concentration at which inhibition is half-maximal. By inhibition is commonly meant the relative decrease from the control value, in per cent.

A short description of assay [1]: Antiproliferative activity against human HN-6 cells assessed as cell growth inhibition incubated for 72 hrs by CCK-8 assay. The format is functional, cell-based. The conditions noted are these: HN-6, 72 h.
The target of another assay is Tubulin (Homo sapiens) (UniProt P68371+Q9H4B7+P0DPH7+P68366+Q13509+Q71U36+P04350+Q3ZCM7+P07437+P68363+Q9BQE3+Q6PEY2+Q13885+Q9BVA1+Q9BUF5). Briefly: Inhibition of tubulin polymerization (unknown origin) at 20 micromol/L by fluorescence based analysis. The format is protein-complex assay. The following applies: dose 20.0 µmol/L.
Another assay deals with FaDu. Briefly: Antiproliferative activity against human FaDu cells assessed as cell growth inhibition incubated for 72 hrs by CCK-8 assay. The format is functional, cell-based. (In general: Tetrazolium dyes change colour on reduction, which living cells bring about.)
In another assay the test system is CAL-27. Briefly: Antiproliferative activity against human CAL-27 cells assessed as cell growth inhibition incubated for 72 hrs by CCK-8 assay. The following applies: CAL-27, 72 h. The format is functional, cell-based.

In the case of `CCCCc1ccc2nc(NC(=O)NCCOC(=O)C(C)C)[nH]c2c1`, in assay [1], the half-inhibitory concentration (IC50) stood at 1.59 µM. Besides, the inhibition at Tubulin (Homo sapiens) was 0%.

`CCCCc1ccc2nc(NC(=O)OC3CCCC3)[nH]c2c1`: the IC50 in assay [1] stood at 1.69 µM. Also, on Tubulin (Homo sapiens), the inhibition came to 8.6%.

Regarding `CCCCc1ccc2nc(NC(=O)OCCCCl)[nH]c2c1`, the half-inhibitory concentration (IC50) in assay [1] was found to be 0.456 µM. Besides, the inhibition against Tubulin (Homo sapiens) amounted to 36.4%.

For `CCCCCCCOC(=O)Nc1nc2ccc(CCCC)cc2[nH]1`, the IC50 in assay [1] was > 2 µM. Further, at Tubulin (Homo sapiens), the inhibition amounted to 0%.

For the compound `CCCCOC(=O)Nc1nc2ccc(CCCC)cc2[nH]1`, the IC50 in assay [1] was found to be 0.254 µM. On Tubulin (Homo sapiens), the inhibition was 44.1%.

Turning to `CCCCc1ccc2nc(NC(=O)Cc3ccccc3)[nH]c2c1`, the IC50 in assay [1] was > 2 µM. Moreover, the inhibition at Tubulin (Homo sapiens) was found to be 4.9%.

`C=CCNC(=O)Nc1nc2ccc(CCCC)cc2[nH]1`: the half-maximal inhibitory concentration (IC50) turned out to be 0.282 µM in the assay with FaDu (read-out: IC50), 0.216 µM with CAL-27 and 0.392 µM in assay [1]. The compound also yielded an inhibition against Tubulin (Homo sapiens) of 8.4%.

As for `COc1cc2c(c(OC)c1OC)-c1ccc(OC)c(=O)cc1[C@@H](NC(C)=O)CC2` [COLCHICINE], the IC50 in the assay with FaDu is 0.0228 µM; in the assay on CAL-27 it was 0.0375 µM; in assay [1] it was 0.0195 µM.

`CCCCc1ccc2nc(NC(=O)NC(C)(C)C)[nH]c2c1`: the IC50 in assay [1] was > 2 µM. The same compound registered an inhibition on Tubulin (Homo sapiens) of 9.79%.

Take `CCCCc1ccc2nc(NC(=O)OCC(CC)CCCC)[nH]c2c1` (stereo unspecified): the IC50 in assay [1] was > 2 µM. Also, the inhibition against Tubulin (Homo sapiens) was determined as 9.96%.

For `CC(C)OC(=O)Nc1nc2ccc(C#N)cc2[nH]1`, in assay [1], the IC50 was > 2 µM. The compound further yielded an inhibition against Tubulin (Homo sapiens) of 3.43%.

In the case of `CCCCc1ccc2nc(NC(=O)NC3CCCC3)[nH]c2c1`, in assay [1], the IC50 was 0.745 µM. The compound also returned an inhibition against Tubulin (Homo sapiens) of 32.3%.

For the compound `CCCCc1ccc2nc(NC(=O)NCCC)[nH]c2c1`, the IC50 in assay [1] was 0.549 µM. Besides, the inhibition on Tubulin (Homo sapiens) was determined as 2.99%.

Consider `CC(C)OC(=O)Nc1nc2ccc(C(F)(F)F)cc2[nH]1`, for which the IC50 in assay [1] came to 1 µM. On Tubulin (Homo sapiens), this compound came in with an inhibition of 4.37%.

For `CCCCc1ccc2nc(NC(=O)OCCCl)[nH]c2c1`, the IC50 in assay [1] is > 2 µM. Also, the inhibition on Tubulin (Homo sapiens) worked out at 0%.

Consider `CCCCc1ccc2nc(NC(=O)NC(C)C)[nH]c2c1`, for which, in assay [1], the IC50 stood at 0.856 µM. Besides, the inhibition against Tubulin (Homo sapiens) is 9.65%.

Regarding `CCCCc1ccc2nc(NC(=O)OCC(C)C)[nH]c2c1`, the IC50 in assay [1] is 0.412 µM. On Tubulin (Homo sapiens), the inhibition is 34.4%.

`CC[C@]1(O)C[C@@H]2CN(CCc3c([nH]c4ccccc34)[C@@](C(=O)OC)(c3cc4c(cc3OC)N(C)[C@H]3[C@@](O)(C(=O)OC)[C@H](OC(C)=O)[C@]5(CC)C=CCN6CC[C@]43[C@@H]65)C2)C1` [VINBLASTINE]: the IC50 in the assay on FaDu (read-out: IC50) worked out at 0.00448 µM; in the assay on CAL-27 it was 0.00103 µM; in assay [1], 0.00083 µM.

With `CCCCc1ccc2nc(NC(=O)NCC)[nH]c2c1`, the IC50 in assay [1] stood at 0.187 µM. Moreover, at Tubulin (Homo sapiens), the inhibition is 0%.

For `CCCCc1ccc2nc(NC(=O)NC3CCCCC3)[nH]c2c1`, in assay [1], the IC50 came to 0.967 µM. Further, at Tubulin (Homo sapiens), the inhibition is 8.26%.

Regarding `CCCCCCOC(=O)Nc1nc2ccc(CCCC)cc2[nH]1`, in assay [1], the IC50 was > 2 µM. On Tubulin (Homo sapiens), this compound gave an inhibition of 0%.

As to `CC(C)OC(=O)Nc1nc2ccc(F)cc2[nH]1`, in assay [1], the IC50 turned out to be 1.47 µM. The same compound had an inhibition against Tubulin (Homo sapiens) of 0.85%.

Turning to `CC(C)OC(=O)Nc1nc2cc(F)c(F)cc2[nH]1`, the IC50 in assay [1] was 1.37 µM. Besides, the inhibition against Tubulin (Homo sapiens) was 12.6%.

Consider `CCCCc1ccc2nc(NC(=O)NCCc3ccccc3)[nH]c2c1`, for which the IC50 in the assay on FaDu (read-out: IC50) was determined as 0.775 µM; in the assay on CAL-27, 0.499 µM; in assay [1], 0.429 µM. The inhibition on Tubulin (Homo sapiens) was 38.7%.

In the case of `CCCCCCNC(=O)Nc1nc2ccc(CCCC)cc2[nH]1`, in assay [1], the IC50 is 1.4 µM. Also, the inhibition at Tubulin (Homo sapiens) was 12.5%.

In the case of `COc1ccc(/C=C\c2cc(OC)c(OC)c(OC)c2)cc1O` [COMBRETASTATIN A4], the IC50 came out at 0.00505 µM with FaDu (read-out: IC50), 0.00301 µM in the assay with CAL-27 and 0.00443 µM in assay [1].

In the case of `CCCCc1ccc2nc(NC(=O)OCc3ccccc3)[nH]c2c1`, in assay [1], the IC50 was > 2 µM. Further, at Tubulin (Homo sapiens), the inhibition was 10.5%.
